pIC50: −log10 of the molar value. Active and inactive are the calls of the source. No cut-off for these calls is given here.
Assays:
[1] = Lipophilicity, logD of compound in octanol and aqueous buffer at pH 7.4 incubated for 2 hrs by shake-flask method based LC-MS/MS analysis; assay type: physicochemical
[2] = Intrinsic permeability in human Caco-2 cells at 10 uM; assay type: ADME, cell-based; settings: read-out: permeability
[3] = Metabolic stability in rat hepatocytes assessed as intrinsic clearance measured per 10^6 cells at 1 uM incubated for 120 mins by LC-MS/MS analysis; assay type: ADME, cell-based, Hepatocyte; settings: read-out: CLH
[4] = Metabolic stability in human liver microsomes assessed as intrinsic clearance at 1 uM incubated for 30 mins in presence of NADPH by LC-MS/MS analysis; assay type: ADME, Microsome; settings: read-out: CLH
[5] = Duration (time) of SCID mouse free plasma concentration cover over EGFR insSVD cell IC50 at 50 mg/kg, po; assay type: ADME, organism-based; settings: in vivo
[6] = Metabolic stability in CD-1 mouse hepatocytes assessed as intrinsic clearance measured per 10^6 cells at 1 uM incubated for 120 mins by LC-MS/MS analysis; assay type: ADME, cell-based, Hepatocyte; settings: read-out: CLH
[7] = biological target: T1, Epidermal growth factor receptor (Homo sapiens, UniProt P00533); assay: Inhibition of wildtype EGFR (unknown origin) phosphorylation transfected in human NCI-H2073 cells preincubated for 2 hrs followed by EGF stimulation for 10 mins by HTRF assay; assay type: cell-based
T1 sequence (P00533 whole entry): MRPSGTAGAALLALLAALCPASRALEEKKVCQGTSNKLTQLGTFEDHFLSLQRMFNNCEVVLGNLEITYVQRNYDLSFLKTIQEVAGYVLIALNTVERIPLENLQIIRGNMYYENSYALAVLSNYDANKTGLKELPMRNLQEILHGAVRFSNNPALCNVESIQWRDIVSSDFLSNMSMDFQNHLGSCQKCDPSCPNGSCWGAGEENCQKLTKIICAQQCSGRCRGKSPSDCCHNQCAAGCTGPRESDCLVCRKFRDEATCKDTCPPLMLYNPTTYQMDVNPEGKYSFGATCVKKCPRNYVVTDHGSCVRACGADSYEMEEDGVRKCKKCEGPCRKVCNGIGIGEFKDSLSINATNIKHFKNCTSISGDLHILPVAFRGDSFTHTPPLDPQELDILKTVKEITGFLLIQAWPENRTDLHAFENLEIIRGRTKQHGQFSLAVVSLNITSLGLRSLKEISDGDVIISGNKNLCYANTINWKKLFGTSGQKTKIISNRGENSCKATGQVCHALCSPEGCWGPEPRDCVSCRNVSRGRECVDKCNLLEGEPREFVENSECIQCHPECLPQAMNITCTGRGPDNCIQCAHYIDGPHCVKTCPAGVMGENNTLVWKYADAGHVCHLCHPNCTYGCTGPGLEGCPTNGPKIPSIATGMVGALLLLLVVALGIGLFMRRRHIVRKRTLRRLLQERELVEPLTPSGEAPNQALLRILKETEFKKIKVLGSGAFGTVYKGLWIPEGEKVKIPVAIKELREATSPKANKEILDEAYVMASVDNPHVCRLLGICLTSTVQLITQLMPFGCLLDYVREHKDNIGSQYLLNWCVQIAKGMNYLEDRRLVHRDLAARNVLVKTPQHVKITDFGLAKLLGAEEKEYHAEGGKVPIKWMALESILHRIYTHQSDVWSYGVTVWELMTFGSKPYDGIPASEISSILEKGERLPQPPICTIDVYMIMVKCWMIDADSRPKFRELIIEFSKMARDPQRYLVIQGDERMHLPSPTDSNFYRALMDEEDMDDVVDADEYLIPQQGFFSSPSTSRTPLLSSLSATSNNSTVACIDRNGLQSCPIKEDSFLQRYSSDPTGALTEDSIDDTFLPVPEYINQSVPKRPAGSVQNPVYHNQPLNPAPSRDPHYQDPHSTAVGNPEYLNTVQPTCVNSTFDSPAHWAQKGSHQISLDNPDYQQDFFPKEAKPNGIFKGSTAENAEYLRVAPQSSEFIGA

MDR1 = assay: Efflux ratio of apparent permeability across basolateral to apical side over apical to basolateral side in MDCKII-MDR1 cells at 1 uM incubated for 2 hrs by LC-MS/MS analysis; assay type: ADME, cell-based, Canis lupus familiaris; settings: dog, MDCK-MDR1
[8] = biological target: T2, Epidermal growth factor receptor (Homo sapiens, UniProt P00533, D770-N771INSSVD); assay: Inhibition of EGFR D770_N771insSVD mutant (unknown origin) phosphorylation transfected in human NCI-H2073 cells incubated for 2 hrs by HTRF assay; assay type: cell-based
T2 sequence (P00533 whole entry, looked up, stated change not applied): as the sequence (P00533 whole entry) above

[9] = (§1) Selectivity ratio of IC50 for inhibition of wildtype EGFR (unknown origin) transfected in human NCI-H2073 cells preincubated for 2 hrs followed by EGF stimulation for 10 mins by HTRF assay to IC50 for inhibition of EGFR D770_N771insSVD mutant (unknown origin) transfected in human NCI-H2073 cells incubated for 2 hrs by HTRF assay; assay type: cell-based
[10] = GSH reactivity of compound in phosphate buffer assessed as half-life at pH 7.4 at 1 uM by LC-MS/MS analysis; assay type: physicochemical; settings: phosphate buffer with GSH
[11] = biological target: Epidermal growth factor receptor (Homo sapiens, UniProt P00533, D770-N771INSNPG); assay: Inhibition of 6His-tagged TEV-GS fused EGFR D770_N771insNPG mutant (G696 to G1210 reisudes) (unknown origin) expressed in Sf21 cells using Poly(Glu,Tyr) peptide as substrate preincubated for 15 mins followed by substrate addition and measured after 30 mins in presence of ATP by ADP-Glo reagent based assay
Epidermal growth factor receptor (Homo sapiens, UniProt P00533, D770-N771INSNPG), sequence (P00533 whole entry, looked up, stated change not applied, the tested form may be a part): as the sequence (P00533 whole entry) above

[12] = Selectivity ratio of IC50 for inhibition of recombinant wildtype human N-terminal GST-tagged EGFR cytoplasmic domain (669 to 1210 residues) expressed in Sf21 insect cells to IC50 for inhibition of 6His-tagged TEV-GS fused EGFR D770_N771insNPG mutant (G696 to G1210 reisudes) (unknown origin) expressed in Sf21 cells
[13] = biological target: T2, Epidermal growth factor receptor; assay: Inhibition of EGFR D770_N771insSVD mutant (unknown origin) phosphorylation transfected in human NCI-H2073 cells incubated for 2 hrs by ELISA; assay type: cell-based
[14] = biological target: T1, Epidermal growth factor receptor; assay: Inhibition of wildtype EGFR (unknown origin) phosphorylation transfected in human NCI-H2073 cells preincubated for 2 hrs followed by EGF stimulation for 10 mins by ELISA; assay type: cell-based
[15] = biological target: T1, Epidermal growth factor receptor; assay: Inhibition of recombinant wildtype human N-terminal GST-tagged EGFR cytoplasmic domain (669 to 1210 residues) expressed in Sf21 insect cells using Poly(Glu,Tyr) peptide as substrate preincubated for 15 mins followed by substrate addition and measured after 50 mins in presence of ATP by ADP-Glo reagent based assay
[16] = as §1, with “ELISA” for “HTRF assay”; assay type: cell-based
[17] = Selectivity ratio of Ki/Kinact for inhibition of EGFR D770_N771insNPG mutant (unknown origin) using AQT0099 as substrate to Ki/Kinact for inhibition of wildtype EGFR (unknown origin) using AQT0099 as substrate
Mus musculus = assay: In vivo inhibition of EGFR phosphorylation in female SCID mouse xenografted with NCI-H2073 cells harboring EGFR D770_N771insSVD mutant at 100 mg/kg, po measured after 1 to 6 hrs by immunoblotting analysis; assay type: functional, organism-based; settings: time 1-6 hrs
[18] = Antitumor activity against human NCI-H2073 cells harboring EGFR D770_N771insSVD mutant xenografted in female SCID mouse assessed as tumor growth inhibition at 100 mg/kg, po administered once daily for 14 days relative to control; assay type: functional; settings: NCI-H2073, 336 h, time 14 day, read-out: TGI
[19] = Antitumor activity against human NCI-H2073 cells harboring wildtype EGFR xenografted in female SCID mouse assessed as tumor growth inhibition at 100 mg/kg, po administered once daily for 15 days relative to control; assay type: functional; settings: NCI-H2073, 360 h, time 15 day, read-out: TGI
[20] = Toxicity in female SCID mouse xenografted with human NCI-H2073 cells harboring EGFR D770_N771insSVD mutant assessed as body weight loss at 100 mg/kg, po administered once daily for 14 days; assay type: organism-based; settings: in vivo, 336 h, time 14 day
[21] = Drug metabolism in human liver microsomes assessed as O-dealkylation mediated fluoro-phenolic metabolite formation incubated for 60 mins by LC-MS/MS analysis; assay type: ADME, Microsome; settings: 1 h

Row | SMILES | logD at 2 h [1] | hepatocyte CLint at 1 µM [3] [µL/min/1e6 cells] | microsomal CLint at 1 µM [4] [µL/min/mg] | further results
1 | C=CC(=O)N1CC[C@H](n2cc(-c3ccncc3)c(-c3cccc(/C=C/c4cc5n(n4)CCOC5)c3)n2)C1 | 3.5 | 62 | 167 | 
2 | C=CC(=O)N1CC[C@H](n2cc(-c3ccncc3)c(-c3cccc(NC(=O)c4cn(C5CC5)cn4)c3)n2)C1 | 2.5 | 38 | 64 | Time [5]: 1 h; hepatocyte CLint at 1 µM [6]: 42 µL/min/1e6 cells
3 | C=CC(=O)N1CC[C@H](n2cc(-c3ccncc3)c(-c3cccc(/C=C/c4ccc5c(c4)CN(C)C5=O)c3)n2)C1 | 3.9 | 28 | 200 | pIC50 [7]: < 4.80; efflux ratio at 2 h, 1 µM (MDR1): 29; pIC50 [8]: 6.66; Time [5]: 0 h; Ratio IC50 [9]: > 73; hepatocyte CLint at 1 µM [6]: 29 µL/min/1e6 cells
4 | C=CS(=O)(=O)NCCn1cc(-c2ncnc3cc(OC)c(OC)cc23)c(-c2cccc(OC)c2)n1 | 2.2 |  | 192 | half-life at 1 µM [10]: 1.15 h
5 | C#CC(=O)NCCn1cc(-c2ncnc3cc(OC)c(OC)cc23)c(-c2cccc(OC)c2)n1 | 2.1 |  | 105 | half-life at 1 µM [10]: 0.917 h
6 | C=CC(=O)N1CC[C@H](n2cc(-c3ncnc4cc(OC)c(OC)cc34)c(-c3cccc(OC)c3)n2)C1 | 2.4 |  | 157 | 
7 | C=CC(=O)Nc1cc(Nc2ncc(C(=O)OC(C)C)c(-c3cn(C)c4ccccc34)n2)c(OC)cc1N(C)CCN(C)C [MOBOCERTINIB] |  |  |  | pIC50 [7]: 7.43; pIC50 [11]: > 8.52; Ratio IC50 [12]: > 0.4; pIC50 [13]: 7.66; pIC50 [8]: 7.47; Ratio IC50 [9]: 1.1; pIC50 [14]: 7.52; pIC50 [15]: 9.00; Ratio IC50 [16]: 1.4; Selectivity ratio [17]: 0.63
8 | C=CC(=O)NCCn1cc(-c2ncnc3cc(OC)c(OC)cc23)c(-c2cccc(OC)c2)n1 | 2.4 |  | 116 | half-life at 1 µM [10]: 49.3 h
9 | C=CC(=O)N1CC[C@H](n2cc(-c3ccncc3)c(-c3cccc(NC(=O)c4ccc5c(c4)CN(C)C5=O)c3)n2)C1 | 2.2 | 21 | 58 | Papp at 10 µM [2]: < 0.36 ×10⁻⁶ cm/s
10 | C=CC(=O)N1CC(n2cc(-c3ccncc3)c(-c3cccc(NC(=O)c4cn(C5CC5)cn4)c3)n2)C1 | 2.2 | 58 | 19 | hepatocyte CLint at 1 µM [6]: 150 µL/min/1e6 cells
11 | C=CC(=O)N1CC[C@@H](n2cc(-c3ncnc4cc(OC)c(OC)cc34)c(-c3cccc(OC)c3)n2)C1 | 2.4 |  | 135 | 
12 | C=CC(=O)N1CC[C@H](n2cc(-c3ccncn3)c(-c3cccc(/C=C/c4ncc(C5CC5)o4)c3)n2)C1 | 3.7 | 67 | 202 | 
13 | C=CC(=O)N[C@H]1C=C(C)c2c(-c3cnc4ccccc4c3)c3c(N)ncnc3n2C1 [CLN-081] |  |  |  | pIC50 [7]: 7.11; inhibition (Mus musculus): Active; pIC50 [11]: > 8.52; pIC50 [13]: 7.24; inhibition in vivo at 100 mg/kg [18]: 69%; inhibition in vivo at 100 mg/kg [19]: 63%; pIC50 [8]: 7.68; Ratio IC50 [9]: 3.6; Activity [20]: < 10%; pIC50 [14]: 6.72; pIC50 [15]: > 8.52; Ratio IC50 [16]: 3.4; Selectivity ratio [17]: 0.79
14 | C=CC(=O)N1CC[C@H](n2cc(-c3ccncc3)c(-c3cc(F)cc(OCc4ccc5c(c4)CN(C)C5=O)c3)n2)C1 | 3.3 |  | > 300 | pIC50 [7]: < 4.55; pIC50 [8]: 6.27; Ratio IC50 [9]: > 52
15 | C=CC(=O)N1CC(Oc2cc3c(-c4c[nH]nc4-c4cccc(OC)c4)ncnc3cc2OC)C1 | 2 |  | 33 | 
16 | C=CC(=O)N1CC(n2cc(-c3ccncc3)c(-c3cccc(/C=C/c4ncc(C5CC5)o4)c3)n2)C1 | 4.4 | 48 | 51 | hepatocyte CLint at 1 µM [6]: 64 µL/min/1e6 cells
17 | C=CC(=O)N1CC[C@H](n2cc(-c3ccncc3)c(-c3cccc(NC(=O)c4ncc(C5CC5)o4)c3)n2)C1 | 3.1 | 187 | 166 | Papp at 10 µM [2]: 30 ×10⁻⁶ cm/s

More lines, main results first:

Row | logD at 2 h [1] | hepatocyte CLint at 1 µM [3] [µL/min/1e6 cells] | microsomal CLint at 1 µM [4] [µL/min/mg] | SMILES | further results
18 | 2.9 | 51 | 175 | C=CC(=O)N1CC[C@H](n2cc(-c3ccncc3)c(-c3cccc(NC(=O)c4cccc(OC)c4F)c3)n2)C1 | Papp at 10 µM [2]: 42 ×10⁻⁶ cm/s
19 | 3.5 |  | 117 | Fc1ccccc1COc1cccc(-c2n[nH]cc2-c2ccncn2)c1 | 
20 | 2.6 |  | > 264 | C=CC(=O)N1CC[C@H](n2cc(-c3ccncc3)c(-c3cccc(OCc4ccc5c(c4)CN(C)C5=O)c3)n2)C1 | hepatocyte CLint at 1 µM [6]: 64 µL/min/1e6 cells
21 | 3 |  | > 300 | C=CC(=O)N1C[C@@H](n2cc(-c3ccncc3)c(-c3cccc(OCc4ccc5c(c4)CN(C)C5=O)c3)n2)C[C@@H]1C | 
22 |  |  | > 300 | COc1cc2ncnc(-c3c[nH]nc3-c3cccc(OCc4ccc5c(c4)CN(C)C5=O)c3)c2cc1OC | 
23 | 3.4 | 58 | > 300 | C=CC(=O)N1C[C@@H](n2cc(-c3ccncc3)c(-c3cccc(COc4ccc5c(c4)CN(C)C5=O)c3)n2)C[C@H]1C | Time [5]: 3 h; hepatocyte CLint at 1 µM [6]: 30 µL/min/1e6 cells
24 | 3 | 128 | > 300 | C=CC(=O)N1CC[C@H](n2cc(-c3ccncc3)c(-c3cccc(COc4ccc5c(c4)CN(C)C5=O)c3)n2)C1 | 
25 | 2.7 |  | > 300 | C=CC(=O)N1CC[C@H](n2cc(-c3ccncc3)c(-c3cc(OCc4ccc5c(c4)CN(C)C5=O)ccc3F)n2)C1 | 
26 | 4.1 |  | 46 | C=CC(=O)Nc1ccc(OC)c(Nc2nccc(-c3c[nH]nc3-c3cccc(OC)c3)n2)c1 | Papp at 10 µM [2]: 64 ×10⁻⁶ cm/s; half-life at 1 µM [10]: 5.35 h
27 | 3.6 | 173 | > 300 | C=CC(=O)N1C[C@@H](n2cc(-c3ccncc3)c(-c3ccc(F)c(COc4ccc5c(c4)CN(C)C5=O)c3)n2)C[C@H]1C | 
28 | 3.9 |  | > 300 | C=CC(=O)Nc1ccc(OC)c(Nc2cc(-c3c[nH]nc3-c3cccc(OCc4ccc5c(c4)CN(C)C5=O)c3)ccn2)c1 | Papp at 10 µM [2]: 7.5 ×10⁻⁶ cm/s
29 | 3.2 |  | > 300 | C=CC(=O)N1C[C@@H](n2cc(-c3ccncc3)c(-c3cccc(OCc4ccc5c(c4)CN(C)C5=O)c3)n2)C[C@H]1C | 
30 | 3.1 |  | 77 | CN1Cc2cc(COc3cccc(-c4n[nH]cc4-c4ccncc4)c3)ccc2C1=O | pIC50 [11]: 6.82; Ratio IC50 [12]: > 50; pIC50 [15]: < 5.13
31 | 2.9 |  | > 300 | C=CC(=O)N1CC[C@H](n2cc(-c3ccncc3)c(-c3ccc(F)c(OCc4ccc5c(c4)CN(C)C5=O)c3)n2)C1 | Drug metabolism [21]: Metabolite_Detected
32 | 3.3 | 55 | > 300 | C=CC(=O)N1C[C@@H](n2cc(-c3ccncc3)c(-c3cc(COc4ccc5c(c4)CN(C)C5=O)ccc3F)n2)C[C@H]1C | 
33 | > 4.9 |  | 226 | Fc1ccccc1COc1cccc(-c2n[nH]cc2-c2ccncc2)c1 | 
